Patent US7998460B2, “Prevention of deficits in neurogenesis with anti-inflammatory agents” (The Board of Trustees of the Leland Stanford Junior …, priority 2003, dated 2011)
“Also recorded” adds a separate entry of the source.

Assays:
[1] = system: hippocampal neurogenesis; experiment: Oral NSAID course and LPS challenge, hippocampal neurogenesis at day 28 in mice; format: in vivo, mouse; settings: oral NSAID course, LPS 5 mg/kg
Experimental: Mice were started on a 16 day preventative course of oral NSAID and then challenged with a single IP injection of LPS (5 mg/kg) and then BrdU (50 mg/kg) over 6 days beginning 2 h after LPS. The mice were either perfused 28 days after LPS injection, or trained and tested in the Morris water maze.
NSAID treatment. […]

[2] = system: hippocampal neurogenesis; experiment: LPS-induced transient illness, microglia and hippocampal neurogenesis in mice; format: in vivo, mouse
Experimental: To investigate whether an LPS challenge produces more chronic effects on neurogenesis, adult female C57BI/6 mice were injected intraperitoneally (i.p.) with 0, 5, 7.5 and 10 mg/kg of LPS and subcutaneously with sterile saline to prevent dehydration. Mice were then injected once daily over the next 6 days with the cell synthesis marker bromodeoxyuridine (BrdU; 50 mg/kg) to label dividing progenitor cells. Histology was performed on sections from mice that were perfused on Day 7 or Day 28. The number of BrdU-labeled (new) or IBA-1-labeled (monocyte/microglial) cells was estimated through hippocampal sets stereologically using enzyme substrate immunohistochemistry and light microscopy and BrdU-labeled cell phenotypes and IBA-1-labeled activation was determined using immunofluorescence and confocal microscopy.
Subjects. All mice used as subjects in this study were treated in accordance with the policies set forth by the Stanford Animal Care and Use Committee and NIH regarding the ethical use of animals for experimentation. CB57BI/6 mice (7 wks old upon arrival from -Taconic) were housed in groups of 4-5 in autoclaved shoebox cages under standard conditions and were given free access to autoclaved Prolab Mouse 3000 chow (PMI Nutrition International, St. Louis, Mo.) and autoclaved tap water. One week after arrival, vehicle- and NSAID-treated mice were given an intraperitoneal (i.p.) injection of sterile saline or lipopolysaccharide (LPS; 5 mg/kg at a concentration of 1 mg/ml isotonic saline; Sigma Aldrich, St. Louis, Mo.) to induce transient illness (Day 0) and daily subcutaneous (s.c.) isotonic saline (0.5 ml) injections (Days 0-3) to prevent illness-induced dehydration. The cell synthesis marker bromodeoxyuridine (BrdU; Sigma Aldrich, St. Louis, Mo.) was injected i.p. (50 mg/kg at a concentration of 10 mg/ml in freshly prepared isotonic saline) once per day for 6 days to label dividing cells, beginning Day 0 (2 h after LPS). The mice were anesthetized with ketamine/xylazine and killed at Days 7 or 28 (to assess hippocampal neurogenesis during illness and just before behavioral testing, respectively) or Day 80 (to measure hippocampal neurogenesis following behavioural testing) by perfusion with 4% paraformaldehyde. Brains were post-fixed overnight in perfusate, microtome sectioned at 40 μm through the hippocampus and stored in tissue cryoprotectant solution at −20° C. until processed immunohistochemically.
Histology and Immunohistochemistry. Free floating sections were immunostained as described previously using the following primary antibodies and working concentrations: rat anti-bromodeoxyuridine (1:500; Accurate, Westbury, N.J.) goat anti-doublecortin (1:500; Santa Cruz, Calif.), rabbit anti-[…] (1:2000; WAKO, Los Angeles, Calif.), rabbit anti-FA-11 (CD68; 1:200; Serotec, Raleigh, N.C.), guinea pig anti-GFAP (1:750; Harlan, Indianapolis, Ind.), rabbit anti-NG2 (1:2000; a gift from W. Stallcup), mouse anti-NeuN (1:500; Chemicon; Temeculah, Calif.). Tissue was incubated in all primary antibodies ovemight (and in anti-BrdU for 48 h) at 4° C. Phenotyping sets were incubated in minimally cross-reactive secondary IGg conjugated fluorophores (1:500; Jackson Immunoresearch, West Grove, Pa.) overnight at 4° C. and coverslipped under PVA-DABCO.
Cell Counting and Unbiased Stereology. BrdU-labeled cells were phenotyped and total BrdU-labeled and […] cell numbers stereologically estimated if they were located in the hippocampal granule cell layer proper and subgranular zone (the neurogenic zone that includes a 50 μm border between the hilus and granule cell layer). BrdU-labeled cells were phenotyped on immunofluroescent stained sections that were anatomically matched using a Zeiss 510 Meta confocal microscope using a multi-channel configuration with a 40× objective and electronic zoom of 2.3. Appropriate gain and black level was set using control sections stained with secondary antibodies alone. […]

[3] = dentate gyri, 4 weeks after LPS

Molecule	effect on LPS-induced deficit in fraction of newborn cells adopting a neuronal fate (DCX and/or NeuN) by Day 28 [1]	effect on LPS-induced reduction of transition state and mature neurons ([1]; Day 28)	reduction in the net number of new neurons ([2]; 4 weeks after LPS challenge)	reduction of BrdU positive cells colabeled with NeuN ([2]; 4 weeks after LPS challenge)	reduction of BrdU-positive cells colabeled with DCX/NeuN ([2]; 4 weeks after LPS challenge)	total number of BrdU positive cells vs vehicle ([2]; 6 and 28 d after injection)	activation (FA-11/CD68) intensity on IBA-1 positive cells vs vehicle [2, 3] [fold]	total IBA-1 positive cell number vs vehicle [2, 3]	reduction of BrdU positive cells colabeled with DCX/NeuN ([2]; week following LPS challenge, independent of LPS dose)
COc1ccc2c(c1)c(CC(=O)O)c(C)n2C(=O)c1ccc(Cl)cc1 [indomethacin]	attenuated, but did not completely reverse this deficit; also recorded: attenuated this deficit	partially reversed the effects of LPS							
lipopolysaccharide [LPS]			45-55%	≈ 57%	≈ 44%	similar	1.25	similar	≈ 41%
